Where two headings read alike, the source gives them in different places.
Columns and labels:
[1] = Pharmacological tests (test not specified); settings: in vivo; listed as Example 12 alpha-isomer
[2] = tested on: adult purebred Beagle dogs; assay: Apomorphine antagonism in dogs; type: in vivo; settings: ordinary doses, prolonged treatment
rats = assay: Antagonism of amphetamine-induced stereotyped behaviour in rats; type: in vivo; settings: oral; for ED50: Rattus norvegicus
Method: The modification used by us was as follows:
The animals were then placed in individual cages. […] The absence of stereotypy was interpreted as a drug effect. ED50 values for protection against stereotypy were determined. All compounds were tested at a minimum of three dose levels using 10 rats per dose, and the observer was kept unaware of the identity of the groups until after the experiment.

For OCCC1CCN(CCC=C2c3ccc(F)cc3Sc3ccc(C(F)(F)F)cc32)CC1 [Substance 13, alpha-isomer of 2-trifluoromethyl-6-fluoro-9-(3-(4-(2-hydroxyethyl)-1-piperidyl)propylidene)-thiaxanthene], which “pharmacological activity of the isomer (in words)” value [1] is on record?
Its value is “pharmacologically active”.

And the “feed intake and survival” value [2]?
The value was “did not take feed to a sufficient degree and, accordingly tended to die by starvation”.

And the ED50 (rats; 24 hours after administration, read-out: ED50 for protection against stereotypy, peak effect (24 hours))?
The ED50 was 0.04 mg/kg.

What about the ED50 (rats; 48 h, read-out: ED50 for protection against stereotypy, 48 h) of the same compound?
Its ED50 is 0.2 mg/kg.

What about the ED50 (rats; 72 h, read-out: ED50 for protection against stereotypy, 72 h) of the same compound?
Its ED50 is 0.9 mg/kg.

And the ED50 (rats; 96 h, read-out: ED50 for protection against stereotypy, 96 h)?
Its ED50 is 2.3 mg/kg.

And the “time of peak effect, amphetamine antagonism” value (rats)?
The value was 24 h.

And the “amphetamine antagonistic effect 4 days after administration (in words)” value (rats; 4 days)?
The value was “rather weak”.
